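Protocol summary: plate cells (96-well), add compound at 5 concentrations, incubate 48 h, interpolate endpoints linearly. TGI marks complete inhibition of growth.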
Tests used:
Assay in all cases: inhibition of tumour cell growth, NCI panel, 48 h
HOP-92 NSCLC = system: HOP-92 NSCLC
HOP-62 NSCLC = system: HOP-62 NSCLC
SR leukemia = system: SR leukemia
HCC-2998 colon = system: HCC-2998 colon
XF 498 CNS = system: XF 498 CNS
KM20L2 colon = system: KM20L2 colon
MOLT-4 leukemia = system: MOLT-4 leukemia
SF-295 CNS = system: SF-295 CNS
SW-620 colon = system: SW-620 colon
SNB-78 CNS = system: SNB-78 CNS
NCI-H522 lung = system: NCI-H522 lung
SN12C renal = system: SN12C renal
EKVX NSCLC = system: EKVX NSCLC
NCI-H460 lung = system: NCI-H460 lung
LXFL 529 NSCLC = system: LXFL 529 NSCLC
SNB-75 CNS = system: SNB-75 CNS
LOX IMVI melanoma = system: LOX IMVI melanoma
COLO 205 colon = system: COLO 205 colon
SK-OV-3 ovarian = system: SK-OV-3 ovarian
DMS 273 small cell lung = system: DMS 273 small cell lung
786-0 renal = system: 786-0 renal
DU-145 prostate = system: DU-145 prostate
RPMI-8226 leukemia = system: RPMI-8226 leukemia
MALME-3M melanoma = system: MALME-3M melanoma
UO-31 renal = system: UO-31 renal
CCRF-CEM leukemia = system: CCRF-CEM leukemia
HL-60(TB) leukemia = system: HL-60(TB) leukemia
UACC-257 melanoma = system: UACC-257 melanoma
IGROV1 ovarian = system: IGROV1 ovarian
HCT-15 colon = system: HCT-15 colon
NCI-H23 lung = system: NCI-H23 lung
OVCAR-5 ovarian = system: OVCAR-5 ovarian
A498 renal = system: A498 renal
HT29 colon = system: HT29 colon
M14 melanoma = system: M14 melanoma
ACHN renal = system: ACHN renal
RXF 393 renal = system: RXF 393 renal
SF-268 CNS = system: SF-268 CNS
CAKI-1 renal = system: CAKI-1 renal
SK-MEL-28 melanoma = system: SK-MEL-28 melanoma
TK-10 renal = system: TK-10 renal
DLD-1 colon = system: DLD-1 colon
SNB-19 CNS = system: SNB-19 CNS
M19-MEL melanoma = system: M19-MEL melanoma
OVCAR-8 ovarian = system: OVCAR-8 ovarian
OVCAR-3 ovarian = system: OVCAR-3 ovarian
U251 CNS = system: U251 CNS
SK-MEL-5 melanoma = system: SK-MEL-5 melanoma
HCT-116 colon = system: HCT-116 colon
UACC-62 melanoma = system: UACC-62 melanoma
NCI-H226 lung = system: NCI-H226 lung
OVCAR-4 ovarian = system: OVCAR-4 ovarian
K-562 leukemia = system: K-562 leukemia
KM12 colon = system: KM12 colon
A549 NSCLC = system: A549 NSCLC
SF-539 CNS = system: SF-539 CNS
SK-MEL-2 melanoma = system: SK-MEL-2 melanoma
HOP-18 NSCLC = system: HOP-18 NSCLC

For CC(=O)N/C=C/c1cc(O)ccc1O, the TGI (HOP-92 NSCLC) was 36.8 µM, the TGI (HOP-62 NSCLC) was > 55.2 µM and the TGI (SR leukemia) was 70.5 µM. For the same molecule, the TGI (HCC-2998 colon) was > 76.2 µM, the TGI (XF 498 CNS) was 32.3 µM and the TGI (KM20L2 colon) was > 67.7 µM. The TGI (MOLT-4 leukemia) was 37.1 µM, the TGI (SF-295 CNS) was 48.1 µM and the TGI (SW-620 colon) was 35.4 µM. The TGI (SNB-78 CNS) was > 71.8 µM, the TGI (NCI-H522 lung) was 7.19 µM and the TGI (SN12C renal) was 46.9 µM. For the same molecule, the TGI (EKVX NSCLC) was > 73.6 µM, the TGI (NCI-H460 lung) was > 74.6 µM and the TGI (LXFL 529 NSCLC) was 29 µM. The TGI (SNB-75 CNS) was > 81.9 µM, the TGI (LOX IMVI melanoma) was 45.6 µM and the TGI (COLO 205 colon) was 45.8 µM. For the same molecule, the TGI (SK-OV-3 ovarian) was > 70.6 µM, the TGI (DMS 273 small cell lung) was > 100 µM and the TGI (786-0 renal) was 48.1 µM. For the same molecule, the TGI (DU-145 prostate) was > 100 µM, the TGI (RPMI-8226 leukemia) was > 89.9 µM and the TGI (MALME-3M melanoma) was > 60.6 µM. It also gave a TGI (UO-31 renal) of 46.2 µM, a TGI (CCRF-CEM leukemia) of 75.3 µM and a TGI (HL-60(TB) leukemia) of 54 µM. For the same molecule, the TGI (UACC-257 melanoma) was 47.9 µM, the TGI (IGROV1 ovarian) was > 68.1 µM and the TGI (HCT-15 colon) was > 72.9 µM. It also gave a TGI (NCI-H23 lung) of 56.1 µM, a TGI (OVCAR-5 ovarian) of 38.1 µM and a TGI (A498 renal) of 98.1 µM. It also gave a TGI (HT29 colon) of 48.6 µM, a TGI (M14 melanoma) of 48.2 µM and a TGI (ACHN renal) of 37.4 µM. For the same molecule, the TGI (RXF 393 renal) was 49.3 µM, the TGI (SF-268 CNS) was 49.8 µM and the TGI (CAKI-1 renal) was 41.7 µM. It also gave a TGI (SK-MEL-28 melanoma) of 48.6 µM, a TGI (TK-10 renal) of 54.5 µM and a TGI (DLD-1 colon) of 48.2 µM. The TGI (SNB-19 CNS) was > 72.4 µM, the TGI (M19-MEL melanoma) was 46.7 µM and the TGI (OVCAR-8 ovarian) was > 85.9 µM. For the same molecule, the TGI (OVCAR-3 ovarian) was 29.8 µM, the TGI (U251 CNS) was > 68.6 µM and the TGI (SK-MEL-5 melanoma) was > 67.5 µM. For the same molecule, the TGI (HCT-116 colon) was 47.4 µM, the TGI (UACC-62 melanoma) was 47.1 µM and the TGI (NCI-H226 lung) was > 77.4 µM. The TGI (OVCAR-4 ovarian) was 47.9 µM, the TGI (K-562 leukemia) was > 91.7 µM and the TGI (KM12 colon) was > 100 µM. For the same molecule, the TGI (A549 NSCLC) was > 76.4 µM, the TGI (SF-539 CNS) was > 66.5 µM and the TGI (SK-MEL-2 melanoma) was 55.1 µM. The TGI (HOP-18 NSCLC) was 35.2 µM.

In the case of CC1=CC2C(=O)N(c3ccccc3)C(=O)C2CC1n1[nH]c(=O)n(Cc2ccccc2)c1=O (configuration not stated), the TGI (HOP-92 NSCLC) is reported as > 100 µM, the TGI (HOP-62 NSCLC) is reported as > 100 µM and the TGI (SR leukemia) is reported as > 100 µM. The TGI (HCC-2998 colon) was > 100 µM, the TGI (XF 498 CNS) was > 100 µM and the TGI (KM20L2 colon) was > 100 µM. The TGI (SF-295 CNS) was > 100 µM, the TGI (SW-620 colon) was > 100 µM and the TGI (SNB-78 CNS) was > 100 µM. For the same molecule, the TGI (NCI-H522 lung) was > 100 µM, the TGI (SN12C renal) was > 100 µM and the TGI (EKVX NSCLC) was > 100 µM. The TGI (NCI-H460 lung) was > 100 µM, the TGI (LXFL 529 NSCLC) was > 100 µM and the TGI (SNB-75 CNS) was > 100 µM. For the same molecule, the TGI (LOX IMVI melanoma) was > 100 µM, the TGI (COLO 205 colon) was > 100 µM and the TGI (SK-OV-3 ovarian) was > 100 µM. For the same molecule, the TGI (DMS 273 small cell lung) was > 100 µM, the TGI (786-0 renal) was > 100 µM and the TGI (MALME-3M melanoma) was > 100 µM. For the same molecule, the TGI (UO-31 renal) was > 100 µM, the TGI (CCRF-CEM leukemia) was > 100 µM and the TGI (HL-60(TB) leukemia) was > 100 µM. The TGI (UACC-257 melanoma) was > 100 µM, the TGI (IGROV1 ovarian) was > 100 µM and the TGI (HCT-15 colon) was > 100 µM. The TGI (NCI-H23 lung) was > 100 µM, the TGI (OVCAR-5 ovarian) was > 100 µM and the TGI (A498 renal) was > 100 µM. The TGI (HT29 colon) was > 100 µM, the TGI (M14 melanoma) was > 100 µM and the TGI (ACHN renal) was > 100 µM. For the same molecule, the TGI (RXF 393 renal) was > 100 µM, the TGI (SF-268 CNS) was > 100 µM and the TGI (CAKI-1 renal) was > 100 µM. For the same molecule, the TGI (SK-MEL-28 melanoma) was > 100 µM, the TGI (TK-10 renal) was > 100 µM and the TGI (DLD-1 colon) was > 100 µM. The TGI (SNB-19 CNS) was > 100 µM, the TGI (OVCAR-8 ovarian) was > 100 µM and the TGI (OVCAR-3 ovarian) was > 100 µM. For the same molecule, the TGI (U251 CNS) was > 100 µM, the TGI (SK-MEL-5 melanoma) was > 100 µM and the TGI (HCT-116 colon) was > 100 µM. For the same molecule, the TGI (UACC-62 melanoma) was > 100 µM, the TGI (NCI-H226 lung) was > 100 µM and the TGI (OVCAR-4 ovarian) was > 100 µM. The TGI (K-562 leukemia) was > 100 µM, the TGI (KM12 colon) was > 100 µM and the TGI (A549 NSCLC) was > 100 µM. The TGI (SF-539 CNS) was > 100 µM, the TGI (SK-MEL-2 melanoma) was > 100 µM and the TGI (HOP-18 NSCLC) was > 100 µM.
